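Where inhibition never reached the appropriate level, the endpoint shown equals the highest concentration tested. Otherwise, values were interpolated linearly from a five-concentration, 48-hour dose response in 96-well plates. GI50: concentration for 50% inhibition of growth.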 Active and inactive are the calls of the source. No stated cut-off is given here; in the data, active = GI50 up to about 1.1 µM and inactive = higher.

The results in this text go back to ChEMBL document CHEMBL1201862, “PubChem BioAssay data set” (2004).

Test systems include OVCAR-8; CAKI-1; COLO 205; UACC-62; ACHN; CCRF-CEM; OVCAR-5; SF-539; OVCAR-3; A549; SNB-19; SK-MEL-28; NCI-H522; MOLT-4; IGROV-1; HOP-92; SK-MEL-2.
Holding throughout (assay): NCI-60 cell line screen, 48 h

`O=C(N[C@H]1CC2(C=C(I)C(=O)C(I)=C2)OC1=O)OCc1ccccc1`: the GI50 in the assay with OVCAR-8 is 17.3 µM (inactive); with CAKI-1, 20.4 µM (inactive); in the assay with COLO 205, 14.5 µM (inactive); with UACC-62, 16.5 µM (inactive); with ACHN, 18.5 µM (inactive); in the assay on CCRF-CEM, 2.61 µM (inactive). Besides, the GI50 is 18.9 µM (inactive) in the assay with OVCAR-5; 17.7 µM (inactive) with SF-539; 17.3 µM (inactive) with OVCAR-3; 42.8 µM (inactive) with A549; 21.8 µM (inactive) in the assay with SNB-19; 18.5 µM (inactive) in the assay with SK-MEL-28. Further, the GI50 in the assay on NCI-H522 is 13.4 µM (inactive).

On to `Cn1nc(-c2ccccc2)c(C(=O)/C=C/c2ccc(F)cc2)c(N2CCOCC2)c1=O`, for which the GI50 was 22.5 µM (inactive) in the assay with OVCAR-8; > 10 µM (inactive) in the assay on CAKI-1; 18.2 µM (inactive) in the assay on COLO 205; 18.1 µM (inactive) in the assay on UACC-62; 14.2 µM (inactive) in the assay with MOLT-4; 22.5 µM (inactive) in the assay with ACHN. Also, the GI50 is 20.3 µM (inactive) in the assay on IGROV-1; 17.7 µM (inactive) with CCRF-CEM; 17.3 µM (inactive) in the assay with SF-539; 17.4 µM (inactive) with A549; 15.2 µM (inactive) in the assay on HOP-92; 13.7 µM (inactive) with SNB-19. The GI50 was 15.8 µM (inactive) with SK-MEL-28 and 14.5 µM (inactive) in the assay on NCI-H522.

With `CN(C)CCNC(=O)c1ccc(Cl)c2c(Nc3ccc(S(=O)(=O)N=C(N)N)cc3)c3ccccc3nc12`, the GI50 was 2.24 µM (inactive) in the assay with OVCAR-8; 3.78 µM (inactive) in the assay with COLO 205; 5.42 µM (inactive) in the assay on UACC-62; 0.358 µM (active) in the assay on MOLT-4; 4.22 µM (inactive) in the assay on ACHN; 3.55 µM (inactive) with IGROV-1. Besides, the GI50 was 1.69 µM (inactive) in the assay on CCRF-CEM; > 10 µM (inactive) in the assay on OVCAR-5; 3.81 µM (inactive) in the assay with SF-539; 9.75 µM (inactive) with SK-MEL-2; 12.4 µM (inactive) in the assay on OVCAR-3; 3.33 µM (inactive) in the assay on A549. The GI50 was 1.85 µM (inactive) with SNB-19, 11.2 µM (inactive) in the assay on SK-MEL-28 and 0.603 µM (active) in the assay with NCI-H522.

Turning to `COc1ccc2cccc(C(=O)c3ccc(C)c4c3CCC4)c2c1`, the GI50 was 43.2 µM (inactive) with OVCAR-8; 31.7 µM (inactive) in the assay with CAKI-1; 29 µM (inactive) with COLO 205; 25.4 µM (inactive) in the assay on UACC-62; 27.6 µM (inactive) in the assay on MOLT-4; 56 µM (inactive) in the assay with ACHN. For the same compound, the GI50 in the assay with IGROV-1 was 24.6 µM (inactive); in the assay on CCRF-CEM it was 26.2 µM (inactive); in the assay with OVCAR-5 it was 34.3 µM (inactive); in the assay with SK-MEL-2 it was 34.6 µM (inactive); in the assay on OVCAR-3, 35.2 µM (inactive); with A549, 49.9 µM (inactive). Besides, the GI50 in the assay with SNB-19 is > 100 µM (inactive); in the assay on SK-MEL-28, > 100 µM (inactive); in the assay on NCI-H522, 22.5 µM (inactive).

Consider `C1=C2/CC[C@H](Sc3ccccc3)[C@H]2C2(CCCCC/1)OCCO2`, for which the GI50 in the assay with OVCAR-8 is 26.7 µM (inactive); with CAKI-1 it was 20.2 µM (inactive); with COLO 205 it was 19.5 µM (inactive); in the assay with UACC-62, 19.6 µM (inactive); in the assay on ACHN it was 35.6 µM (inactive); with IGROV-1, 54.7 µM (inactive). Moreover, the GI50 is 24.5 µM (inactive) with CCRF-CEM; 29.5 µM (inactive) in the assay on OVCAR-5; 40.4 µM (inactive) with SF-539; 16.9 µM (inactive) in the assay on SK-MEL-2; 27.7 µM (inactive) in the assay with OVCAR-3; 51.8 µM (inactive) with A549. Moreover, the GI50 is 18.6 µM (inactive) with HOP-92, 36.9 µM (inactive) in the assay with SNB-19, > 100 µM (inactive) with SK-MEL-28 and 17.9 µM (inactive) in the assay with NCI-H522.

As for `Cc1cccc(NC(=O)CC(=O)N2N=C(N(CCC#N)c3ccc(Cl)cc3)CC2c2ccccc2)c1` (configuration not stated), the GI50 with OVCAR-8, in the assay with CAKI-1, in the assay with COLO 205, in the assay on UACC-62, in the assay with MOLT-4 and in the assay on ACHN was > 100 µM (inactive) each time. The GI50 in the assay with IGROV-1, with CCRF-CEM, with OVCAR-5, in the assay with SF-539, in the assay on OVCAR-3 and with A549 was > 100 µM (inactive) each time. Moreover, the GI50 in the assay on HOP-92, in the assay on SNB-19, in the assay with SK-MEL-28 and with NCI-H522 was > 100 µM (inactive) each time.

In the case of `COc1ccc(CN2C(=O)C(Cc3cc(OC)c(OC)c(C)c3OC)NC(=O)/C2=C/c2cc(OC)c(OC)c(C)c2OC)cc1` (configuration not stated), the GI50 in the assay on OVCAR-8 is 32.1 µM (inactive); in the assay with COLO 205, 22.8 µM (inactive); with UACC-62, 33.7 µM (inactive); in the assay on MOLT-4 it was 24.8 µM (inactive); in the assay with ACHN, 31.7 µM (inactive); in the assay on IGROV-1 it was 53.2 µM (inactive). The GI50 in the assay with CCRF-CEM is 27 µM (inactive); in the assay on OVCAR-5, 44.9 µM (inactive); in the assay on SF-539 it was 45.6 µM (inactive); in the assay on SK-MEL-2, 19.3 µM (inactive); in the assay on OVCAR-3 it was 26.1 µM (inactive); in the assay on A549, 37.1 µM (inactive). Further, the figures for the GI50 in the assay on HOP-92, in the assay on SK-MEL-28 and with NCI-H522 were 29 µM (inactive), 59.8 µM (inactive) and 18.5 µM (inactive), respectively.

With `O=C1c2cccc3cccc(c23)C(=O)N1CCN(CCO)CCO`, the GI50 in the assay with OVCAR-8 was 16.3 µM (inactive); in the assay with COLO 205, 15.6 µM (inactive); with UACC-62 it was 20.6 µM (inactive); in the assay with MOLT-4 it was 24.2 µM (inactive); in the assay on ACHN, 23.9 µM (inactive); in the assay with IGROV-1, 32.7 µM (inactive). Besides, the GI50 in the assay with CCRF-CEM was 30.3 µM (inactive); in the assay on OVCAR-5, 20.9 µM (inactive); with SF-539, 23.5 µM (inactive); in the assay with SK-MEL-2 it was 12.2 µM (inactive); in the assay with OVCAR-3, 33.8 µM (inactive); in the assay on A549, 27.2 µM (inactive). The GI50 with HOP-92 is 26.7 µM (inactive); in the assay on SNB-19, 38.3 µM (inactive); in the assay with SK-MEL-28, 35.8 µM (inactive).

With `Brc1cc2c(cc1C1SCCS1)OCO2`, the GI50 in the assay with OVCAR-8 is > 100 µM (inactive); in the assay with CAKI-1 it was > 100 µM (inactive); with UACC-62, > 100 µM (inactive); in the assay on MOLT-4, 80.4 µM (inactive); in the assay on ACHN it was > 100 µM (inactive); with IGROV-1, > 100 µM (inactive). In addition, the GI50 in the assay on CCRF-CEM, with OVCAR-5, with SF-539, in the assay on SK-MEL-2, in the assay with OVCAR-3 and in the assay with A549 was > 100 µM (inactive) throughout. The GI50 with SNB-19, in the assay on SK-MEL-28 and in the assay on NCI-H522 was > 100 µM (inactive) each time.

In the case of `N#Cc1c2c(c(Cl)n3c1nc1ccccc13)CCCC2`, the GI50 is 2.57 µM (inactive) in the assay on OVCAR-8; 2.76 µM (inactive) with CAKI-1; 5.12 µM (inactive) in the assay on COLO 205; 3.89 µM (inactive) with MOLT-4; 3.56 µM (inactive) in the assay on ACHN; 2.69 µM (inactive) in the assay on IGROV-1. Besides, the GI50 in the assay on OVCAR-5 is 18.4 µM (inactive); with SF-539 it was 3.95 µM (inactive); with SK-MEL-2, 2.8 µM (inactive); with OVCAR-3, 6.5 µM (inactive); in the assay with A549 it was 4.25 µM (inactive); with SNB-19, 4.69 µM (inactive). In addition, the GI50 with SK-MEL-28 is 1.99 µM (inactive).

Consider `CC1(C)C(=O)N(CCCCCCN2C(=O)C(C)(C)c3ccccc32)c2ccccc21`, for which the GI50 with OVCAR-8 was 51.3 µM (inactive); with CAKI-1 it was 62.4 µM (inactive); in the assay with COLO 205, 22.1 µM (inactive); with UACC-62 it was 22.9 µM (inactive); in the assay with MOLT-4 it was 33.8 µM (inactive); with ACHN, 25.6 µM (inactive). In addition, the GI50 was 88.3 µM (inactive) with IGROV-1; 22.4 µM (inactive) with CCRF-CEM; 80.5 µM (inactive) in the assay on OVCAR-5; > 100 µM (inactive) in the assay with SF-539; 48.6 µM (inactive) in the assay on SK-MEL-2; 28 µM (inactive) in the assay on OVCAR-3. Also, the GI50 in the assay on A549 was 43.4 µM (inactive); in the assay with HOP-92, 42.8 µM (inactive); in the assay on SNB-19, 68.5 µM (inactive); in the assay on SK-MEL-28 it was 47.2 µM (inactive).

Consider `CCOc1ccccc1NC(=O)CC1SC(Nc2ccc([N+](=O)[O-])cc2)=NC1=O` (configuration not stated), for which the GI50 in the assay on OVCAR-8 was 21.5 µM (inactive); in the assay with COLO 205, 19.5 µM (inactive); in the assay with UACC-62 it was 17.2 µM (inactive); with MOLT-4, 19 µM (inactive); with ACHN it was 17.3 µM (inactive); with IGROV-1, 23.2 µM (inactive). Besides, the GI50 was 17.2 µM (inactive) in the assay with CCRF-CEM; 29.1 µM (inactive) with OVCAR-5; 18.3 µM (inactive) with SK-MEL-2; 14.5 µM (inactive) in the assay with OVCAR-3; 18.5 µM (inactive) in the assay with A549; 10.2 µM (inactive) with HOP-92. Besides, the GI50 in the assay on SNB-19 is 29.3 µM (inactive); in the assay with SK-MEL-28, 25.3 µM (inactive).

For the compound `COC(=O)C1=CC2C=CC(C1C(=O)OC)C1C(C(=O)OC)=C(C(=O)OC)C(C(=O)OC)=C(C(=O)OC)C21OC` (configuration not stated), the GI50 in the assay with OVCAR-8, with CAKI-1, in the assay with COLO 205, in the assay on UACC-62, in the assay with MOLT-4 and in the assay with ACHN was > 100 µM (inactive) in each case. The GI50 with IGROV-1, in the assay with OVCAR-5, with SF-539, in the assay with SK-MEL-2, in the assay on OVCAR-3 and in the assay on A549 was > 100 µM (inactive) in each case. Moreover, the GI50 in the assay on HOP-92, in the assay on SK-MEL-28 and in the assay on NCI-H522 was > 100 µM (inactive) each time.
